Source: patent US11987586B1 (TAKEDA PHARMACEUTICAL COMPANY LIMITED, priority 2022, dated 2024)

Target: T1, human OX2 receptor (Homo sapiens, UniProt O43614)
T1 construct: expressed in transfected cells
T1 sequence (O43614 1-444): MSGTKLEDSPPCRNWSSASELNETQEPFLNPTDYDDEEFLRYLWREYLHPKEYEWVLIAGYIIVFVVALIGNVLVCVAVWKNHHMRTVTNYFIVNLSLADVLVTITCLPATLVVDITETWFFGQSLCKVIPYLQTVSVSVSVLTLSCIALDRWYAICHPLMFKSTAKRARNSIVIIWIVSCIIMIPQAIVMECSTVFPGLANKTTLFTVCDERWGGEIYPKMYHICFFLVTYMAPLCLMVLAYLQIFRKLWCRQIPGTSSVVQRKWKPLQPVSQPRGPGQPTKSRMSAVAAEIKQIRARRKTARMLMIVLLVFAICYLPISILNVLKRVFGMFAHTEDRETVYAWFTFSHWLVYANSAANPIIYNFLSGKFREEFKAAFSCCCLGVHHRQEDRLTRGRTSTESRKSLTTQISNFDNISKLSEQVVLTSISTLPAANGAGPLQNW
Assay: Measurement of orexin type 2 receptor agonist activity (calcium fluorescence, Fluo-4, FDSS)
Type: cell-based
Conditions: 3 uM test compound; CHO cells expressing human OX2 receptor; DMSO = 0%, 10 nM orexin A (human) = 100%
In short: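 CHO-K1 cells stably expressing human OX2 receptor (residues 1-444) were loaded with Fluo-4 AM plus probenecid. Calcium fluorescence after compound addition was recorded for 1 min 40 s. Activity (%) was scaled between DMSO (0%) and 10 nM orexin A final (100%).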

| Compound | OX2R agonist activity (3 uM, %) [%] |
| --- | --- |
| CCS(=O)(=O)N[C@H]1Cc2c(C)n(-c3noc4cc(C(F)(F)F)cc(-c5c(F)cccc5F)c34)c(=O)n2C1 [Example 86, N-{(6S)-2-[4-(2,6-difluorophenyl)-6-(trifluoromethyl)-1,2-benzoxazol-3-yl]-1-methyl-3-oxo-2,5,6,7-tetrahydro-3H-pyrrolo[1,2-c]imidazol-6-yl}ethanesulfonamide] | 103 |
| CS(=O)(=O)N[C@@H]1CN2C(=O)N(c3noc4cc(Cl)cc(-c5c(F)cccc5F)c34)C[C@@H]2C1(F)F [Example 87, N-{(6R,7aR)-2-[6-chloro-4-(2,6-difluorophenyl)-1,2-benzoxazol-3-yl]-7,7-difluoro-3-oxohexahydro-1H-pyrrolo[1,2-c]imidazol-6-yl}methanesulfonamide] | 91 |
| Cn1nc2cccc(-c3c(F)cccc3F)c2c1-n1cc2n(c1=O)C[C@@H](NS(C)(=O)=O)C2 [Example 88, N-{(6S)-2-[4-(2,6-difluorophenyl)-2-methyl-2H-indazol-3-yl]-3-oxo-2,5,6,7-tetrahydro-3H-pyrrolo[1,2-c]imidazol-6-yl}methanesulfonamide] | 79 |
| O=C1N(c2noc3cccc(-c4c(F)cccc4F)c23)C[C@H]2N1C[C@@H](NS(=O)(=O)C1CC1)C2(F)F [Example 89, N-{(6R,7aR)-2-[4-(2,6-difluorophenyl)-1,2-benzoxazol-3-yl]-7,7-difluoro-3-oxohexahydro-1H-pyrrolo[1,2-c]imidazol-6-yl}cyclopropanesulfonamide] | 95 |
| CS(=O)(=O)N[C@@H]1Cn2c(cn(-c3noc4cc(Cl)cc(-c5c(F)cc(F)cc5F)c34)c2=O)C1(F)F [Example 90, N-{(6R)-2-[6-chloro-4-(2,4,6-trifluorophenyl)-1,2-benzoxazol-3-yl]-7,7-difluoro-3-oxo-2,5,6,7-tetrahydro-3H-pyrrolo[1,2-c]imidazol-6-yl}methanesulfonamide] | 107 |
| CCS(=O)(=O)N[C@@H]1Cn2c(cn(-c3noc4cccc(-c5c(F)cc(F)cc5F)c34)c2=O)C1(F)F [Example 91, N-{(6R)-7,7-difluoro-3-oxo-2-[4-(2,4,6-trifluorophenyl)-1,2-benzoxazol-3-yl]-2,5,6,7-tetrahydro-3H-pyrrolo[1,2-c]imidazol-6-yl}ethanesulfonamide] | 103 |
| CCS(=O)(=O)N[C@@H]1Cn2c(cn(-c3noc4ccc(F)c(-c5c(F)cc(F)cc5F)c34)c2=O)C1(F)F [Example 92, N-{(6R)-7,7-Difluoro-2-[5-fluoro-4-(2,4,6-trifluorophenyl)-1,2-benzoxazol-3-yl]-3-oxo-2,5,6,7-tetrahydro-3H-pyrrolo[1,2-c]imidazol-6-yl}ethanesulfonamide] | 98 |
| CCS(=O)(=O)N[C@@H]1CN2C(=O)N(c3noc4cc(Cl)c(F)c(-c5c(F)cc(F)cc5F)c34)C[C@@H]2C1(F)F [Example 93, N-{(6R,7aR)-2-[6-chloro-5-fluoro-4-(2,4,6-trifluorophenyl)-1,2-benzoxazol-3-yl]-7,7-difluoro-3-oxohexahydro-1H-pyrrolo[1,2-c]imidazol-6-yl}ethanesulfonamide] | 99 |
| CCS(=O)(=O)N[C@@H]1Cn2c(cn(-c3noc4cc(Cl)c(F)c(-c5c(F)cc(F)cc5F)c34)c2=O)C1(F)F [Example 94, N-{(6R)-2-[6-chloro-5-fluoro-4-(2,4,6-trifluorophenyl)-1,2-benzoxazol-3-yl]-7,7-difluoro-3-oxo-2,5,6,7-tetrahydro-3H-pyrrolo[1,2-c]imidazol-6-yl}ethanesulfonamide] | 106 |
| CS(=O)(=O)N[C@@H]1Cn2c(cn(-c3noc4cc(Cl)c(F)c(-c5c(F)cccc5F)c34)c2=O)C1(F)F [Example 95, N-{(6R)-2-[6-chloro-4-(2,6-difluorophenyl)-5-fluoro-1,2-benzoxazol-3-yl]-7,7-difluoro-3-oxo-2,5,6,7-tetrahydro-3H-pyrrolo[1,2-c]imidazol-6-yl}methanesulfonamide] | 104 |
| CS(=O)(=O)N[C@@H]1Cn2c(cn(-c3noc4cccc(-c5c(F)cccc5F)c34)c2=O)C1(F)F [Example 102, N-{(6R)-2-[4-(2,6-Difluorophenyl)-1,2-benzoxazol-3-yl]-7,7-difluoro-3-oxo-2,5,6,7-tetrahydro-3H-pyrrolo[1,2-c]imidazol-6-yl}methanesulfonamide] | 100 |
| Cn1nc(-n2cc3n(c2=O)C[C@@H](NS(C)(=O)=O)C3)c2c(-c3c(F)cccc3F)cccc21 [Example 103, N-{(6S)-2-[4-(2,6-difluorophenyl)-1-methyl-1H-indazol-3-yl]-3-oxo-2,5,6,7-tetrahydro-3H-pyrrolo[1,2-c]imidazol-6-yl}methanesulfonamide] | 106 |
| CCS(=O)(=O)N[C@@H]1CN2C(=O)N(c3noc4ccc(F)c(-c5c(F)cc(F)cc5F)c34)C[C@@H]2C1(F)F [Example 105, N-{(6R,7aR)-7,7-difluoro-2-[5-fluoro-4-(2,4,6-trifluorophenyl)-1,2-benzoxazol-3-yl]-3-oxohexahydro-1H-pyrrolo[1,2-c]imidazol-6-yl}ethanesulfonamide] | 96 |
| CS(=O)(=O)N[C@@H]1Cn2c(cn(-c3noc4cc(Cl)c(F)c(-c5c(F)cc(F)cc5F)c34)c2=O)C1(F)F [Example 106, N-{(6R)-2-[6-chloro-5-fluoro-4-(2,4,6-trifluorophenyl)-1,2-benzoxazol-3-yl]-7,7-difluoro-3-oxo-2,5,6,7-tetrahydro-3H-pyrrolo[1,2-c]imidazol-6-yl}methanesulfonamide] | 103 |
| CS(=O)(=O)N[C@@H]1CN2C(=O)N(c3noc4cc(Cl)c(F)c(-c5c(F)cccc5F)c34)C[C@@H]2C1(F)F [Example 107, N-{(6R,7aR)-2-[6-chloro-4-(2,6-difluorophenyl)-5-fluoro-1,2-benzoxazol-3-yl]-7,7-difluoro-3-oxohexahydro-1H-pyrrolo[1,2-c]imidazol-6-yl}methanesulfonamide] | 101 |
| CS(=O)(=O)N[C@@H]1Cn2c(cn(-c3noc4cc(F)cc(-c5c(F)cc(F)cc5F)c34)c2=O)C1(F)F [Example 108, N-{(6R)-7,7-difluoro-2-[6-fluoro-4-(2,4,6-trifluorophenyl)-1,2-benzoxazol-3-yl]-3-oxo-2,5,6,7-tetrahydro-3H-pyrrolo[1,2-c]imidazol-6-yl}methanesulfonamide] | 109 |
| COCc1cc(-c2c(F)cc(F)cc2F)c2c(-n3cc4n(c3=O)C[C@@H](NS(C)(=O)=O)C4(F)F)noc2c1 [Example 111, N-{(6R)-7,7-difluoro-2-[6-(methoxymethyl)-4-(2,4,6-trifluorophenyl)-1,2-benzoxazol-3-yl]-3-oxo-2,5,6,7-tetrahydro-3H-pyrrolo[1,2-c]imidazol-6-yl}methanesulfonamide] | 90 |
| CCS(=O)(=O)N[C@@H]1Cn2c(cn(-c3noc4nc(C)cc(-c5c(F)cccc5F)c34)c2=O)C1(F)F [Example 112, N-{(6R)-2-[4-(2,6-difluorophenyl)-6-methyl[1,2]oxazolo[5,4-b]pyridin-3-yl]-7,7-difluoro-3-oxo-2,5,6,7-tetrahydro-3H-pyrrolo[1,2-c]imidazol-6-yl}ethanesulfonamide] | 99 |
| CS(=O)(=O)N[C@@H]1Cn2c(cn(-c3noc4cc(OC(F)F)cc(-c5c(F)cc(F)cc5F)c34)c2=O)C1(F)F [Example 113, N-{(6R)-2-[6-(difluoromethoxy)-4-(2,4,6-trifluorophenyl)-1,2-benzoxazol-3-yl]-7,7-difluoro-3-oxo-2,5,6,7-tetrahydro-3H-pyrrolo[1,2-c]imidazol-6-yl}methanesulfonamide] | 102 |
| CCS(=O)(=O)N[C@@H]1Cn2c(cn(-c3noc4cc(F)cc(-c5c(F)cc(F)cc5F)c34)c2=O)C1(F)F [Example 116, N-{(6R)-7,7-difluoro-2-[6-fluoro-4-(2,4,6-trifluorophenyl)-1,2-benzoxazol-3-yl]-3-oxo-2,5,6,7-tetrahydro-3H-pyrrolo[1,2-c]imidazol-6-yl}ethanesulfonamide] | 93 |
| Cc1cc(-c2c(F)cccc2F)c2c(-n3cc4n(c3=O)C[C@@H](NS(C)(=O)=O)C4(F)F)noc2n1 [Example 118, N-{(6R)-2-[4-(2,6-difluorophenyl)-6-methyl[1,2]oxazolo[5,4-b]pyridin-3-yl]-7,7-difluoro-3-oxo-2,5,6,7-tetrahydro-3H-pyrrolo[1,2-c]imidazol-6-yl}methanesulfonamide] | 91 |
| Cc1cc2onc(N3C[C@H]4N(C[C@@H](NS(C)(=O)=O)C4(F)F)C3=O)c2c(-c2c(F)cc(F)cc2F)c1F [Example 119, N-{(6R,7aR)-7,7-difluoro-2-[5-fluoro-6-methyl-4-(2,4,6-trifluorophenyl)-1,2-benzoxazol-3-yl]-3-oxohexahydro-1H-pyrrolo[1,2-c]imidazol-6-yl}methanesulfonamide] | 105 |
| CCS(=O)(=O)N[C@@H]1Cn2c(cn(-c3noc4cc(F)c(F)c(-c5c(F)cc(F)cc5F)c34)c2=O)C1(F)F [Example 121, N-{(6R)-2-[5,6-difluoro-4-(2,4,6-trifluorophenyl)-1,2-benzoxazol-3-yl]-7,7-difluoro-3-oxo-2,5,6,7-tetrahydro-3H-pyrrolo[1,2-c]imidazol-6-yl}ethanesulfonamide] | 93 |
